Experimental data taken from article PMC10152543 (Journal of medicinal chemistry, 2022).

Experiment: Parallel artificial membrane permeability assay
Format: in vitro ADME
Conditions: result in words

SMILES	permeability by PAMPA
Cc1ccc(CNC(=O)[C@@H]2Cc3cccc(c3)Oc3cccc(c3)C[C@H](N)C(=O)N[C@@H](CCc3ccccc3)C(=O)N2)cc1 [CP1, (5S,8S,11S)-11-amino-N-(4-methylbenzyl)-7,10-dioxo-8-phenethyl-2-oxa-6,9-diaza-1,3(1,3)-dibenzenacyclododecaphane-5-carboxamide]	undetectable
O=C(NC1CCCC1)[C@@H]1CCCCOc2cccc(c2)C[C@H](N2CCCC2=O)C(=O)N[C@@H](CCN2CCOCC2)C(=O)N1 [TDI8304]	modest
